Test results taken from patent US20240166664A1, “TRIHETEROCYCLIC COMPOUND, PREPARATION METHOD THEREFOR, AND APPLICATION THEREOF” (SHANGHAI APEIRON THERAPEUTICS COMPANY LIMITED, priority 2021, published 2024).
Where two headings read alike, the source gives them in different places.

How the values were obtained:
[1] = test system: NCI-H1373 cells; test: Cell proliferation inhibition assay (CTG method); type: cell-based, human; conditions: Homo sapiens, NCI-H1373, 144 h, read-out: IC50 (nM) for NCI-H1373 cell viability
[2] = target: T1, PARP7 (Homo sapiens, UniProt Q7Z3E1); test: Test of inhibitory activity against PARP7 enzyme (PARP7 FLAG-tag, Probe A, time-resolved fluorescence); type: biochemical; conditions: PARP7 12 nM, Probe A 2 nM, 1 hr room temperature
T1 construct: purchased BPS 80527
T1 sequence (Q7Z3E1 1-657): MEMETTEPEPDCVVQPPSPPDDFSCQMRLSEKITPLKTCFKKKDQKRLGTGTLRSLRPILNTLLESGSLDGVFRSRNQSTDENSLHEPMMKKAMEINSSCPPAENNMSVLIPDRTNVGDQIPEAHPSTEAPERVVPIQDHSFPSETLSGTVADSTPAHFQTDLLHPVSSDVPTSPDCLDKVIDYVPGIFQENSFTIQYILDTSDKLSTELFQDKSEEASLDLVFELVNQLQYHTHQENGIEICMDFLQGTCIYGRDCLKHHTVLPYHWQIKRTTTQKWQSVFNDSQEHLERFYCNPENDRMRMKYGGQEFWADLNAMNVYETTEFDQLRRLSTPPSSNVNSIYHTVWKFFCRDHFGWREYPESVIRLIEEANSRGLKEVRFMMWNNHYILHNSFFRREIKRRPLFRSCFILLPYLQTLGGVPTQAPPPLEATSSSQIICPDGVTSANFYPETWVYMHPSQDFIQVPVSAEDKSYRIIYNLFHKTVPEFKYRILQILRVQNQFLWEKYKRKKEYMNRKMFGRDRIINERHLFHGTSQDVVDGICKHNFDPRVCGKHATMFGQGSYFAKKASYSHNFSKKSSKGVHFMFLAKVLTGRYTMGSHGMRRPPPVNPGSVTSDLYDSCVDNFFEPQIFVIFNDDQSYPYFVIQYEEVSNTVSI

[3] = NCI-H1373 cells, 6 days incubation, CTG method

| SMILES | IC50 [1, 3] | IC50 [2] | IC50 [1] |
| --- | --- | --- | --- |
| C[C@@H](COCCC(=O)N1CCN2c3ncc(C(F)(F)F)cc3NC[C@H]2C1)Nc1cn[nH]c(=O)c1C(F)(F)F [Compound 9] | 500 to 5000 nM | < 10 nM | – |
| C[C@@H](COCCC(=O)N1CCN2c3ncc(C(F)(F)F)cc3CNC[C@H]2C1)Nc1cn[nH]c(=O)c1C(F)(F)F [Compound 10] | 100 to 500 nM | < 10 nM | – |
| C[C@@H](COCCC(=O)N1CCN2c3ncc(C(F)(F)F)cc3CN(C#N)C[C@H]2C1)Nc1cn[nH]c(=O)c1C(F)(F)F [Compound 11] | 500 to 5000 nM | < 10 nM | – |
| C[C@@H](COCCC(=O)N1CCN2c3ncc(C(F)(F)F)cc3CSC[C@H]2C1)Nc1cn[nH]c(=O)c1C(F)(F)F [Compound 12, 5-(((S)-1-(3-oxo-3-((R)-3-(trifluoromethyl)-7a, 8,10,11-tetrahydro-5H-pyrazino[2,1-c]pyrido[2,3-e][1,4]thiazin-9(7H)-yl)propoxy)prop-2-yl)amino)-4-(trifluoromethyl)pyridazin-3(2H)-one] | < 100 nM | < 10 nM | – |
| C[C@@H](COCCC(=O)N1CCN2c3ncc(C(F)(F)F)nc3OC[C@H]2C1)Nc1cn[nH]c(=O)c1C(F)(F)F [Compound 14] | 100 to 500 nM | < 10 nM | – |
| C[C@@H](COCCC(=O)N1CCN2c3ncc(C(F)(F)F)cc3C[S+]([O-])C[C@H]2C1)Nc1cn[nH]c(=O)c1C(F)(F)F (stereo partly drawn) [Compound 15, 5-(((2S)-1-(3-((7aR)-6-oxo-3-(trifluoromethyl)-7a, 8,10,11-tetrahydro-5H-pyrazino[2,1-c]pyrido[2,3-e][1,4]thiazin-9(7H)-yl)-3-oxopropoxy)prop-2-yl)amino)-4-(trifluoromethyl)pyridazin-3(2H)-one] | 500 to 5000 nM | < 10 nM | – |
| C[C@@H](COCCC(=O)N1CCN2C(=O)c3ncc(C(F)(F)F)cc3OC[C@H]2C1)Nc1cn[nH]c(=O)c1C(F)(F)F [Compound 16, (R)-8-(3-((S)-2-((6-oxo-5-(trifluoromethyl)-1,6-dihydropyridazin-4-yl)amino)propoxy)propionyl)-3-(trifluoromethyl)-6,6a, 7,8,9,10-hexahydro-12H-pyrazino[2,1-c]pyrido[2,3-f][1,4]oxazepin-12-one] | > 5000 nM | 10 to 100 nM | – |
| C[C@@H](COCCC(=O)N1CCN2C(=O)c3ncc(C(F)(F)F)cc3OC[C@@H]2C1)Nc1cn[nH]c(=O)c1C(F)(F)F [Compound 17, (S)-8-(3-((S)-2-((6-oxo-5-(trifluoromethyl)-1,6-dihydropyridazin-4-yl)amino)propoxy)propionyl)-3-(trifluoromethyl)-6,6a, 7,8,9,10-hexahydro-12H-pyrazino[2,1-c]pyrido[2,3-f][1,4]oxazepin-12-one] | > 5000 nM | 10 to 100 nM | – |
| C[C@@H](COCCC(=O)N1CCN2Cc3ncc(C(F)(F)F)cc3OC[C@H]2C1)Nc1cn[nH]c(=O)c1C(F)(F)F [Compound 18, 5-(((S)-1-(3-oxo-3-((R)-3-(trifluoromethyl)-6a, 7,9,10-tetrahydro-12H-pyrazino[2,1-c]pyrido[2,3-f][1,4]oxazepin-8(6H)-yl)propoxy)prop-2-yl)amino)-4-(trifluoromethyl)pyridazin-3(2H)-one] | > 5000 nM | 10 to 100 nM | – |
| C[C@@H](COCCC(=O)N1CCN2Cc3ncc(C(F)(F)F)cc3OC[C@@H]2C1)Nc1cn[nH]c(=O)c1C(F)(F)F [Compound 19, 5-(((S)-1-(3-oxo-3-((S)-3-(trifluoromethyl)-6a, 7,9,10-tetrahydro-12H-pyrazino[2,1-c]pyrido[2,3-f][1,4]oxazepin-8(6H)-yl)propoxy)prop-2-yl)amino)-4-(trifluoromethyl)pyridazin-3(2H)-one] | > 5000 nM | 100 to 500 nM | – |
| C[C@@H](COCCC(=O)N1CCN2c3ncc(F)cc3COC[C@H]2C1)Nc1cn[nH]c(=O)c1C(F)(F)F [Compound 20, (R)-9-(3-((S)-2-((6-oxo-5-(trifluoromethyl)-1,6-dihydropyridazin-4-yl)amino)propoxy)propionyl)-3-fluoro-7,7a, 8,9,10,11-hexahydro-5H-pyrazino[2,1-c]pyrido[2,3-e][1,4]oxazin-5-one] | > 5000 nM | > 500 nM | – |
| C[C@@H](COCCC(=O)N1CCN2c3ncc(C(F)(F)F)cc3CS(=O)(=O)C[C@H]2C1)Nc1cn[nH]c(=O)c1C(F)(F)F [Compound 22] | 500 to 5000 nM | < 10 nM | – |
| C[C@@H](COCCC(=O)N1CCN2c3ncc(C(F)(F)F)cc3CN(C)C[C@H]2C1)Nc1cn[nH]c(=O)c1C(F)(F)F [Compound 23, 5-(((S)-1-(3-((S)-6-methyl-3-(trifluoromethyl)-6,7,7a, 8,10,11-octahydropyrazino[1,2-a]pyrido[3,2-f][1,4]Diazepin-9(5H)-yl)-3-propoxy)prop-2-yl)amino)-4-(trifluoromethyl) pyridazin-3(2H)-one] | 100 to 500 nM | < 10 nM | – |
| C[C@@H]1CN2c3ncc(C(F)(F)F)cc3COC[C@H]2CN1C(=O)CCOC[C@H](C)Nc1cn[nH]c(=O)c1C(F)(F)F [Compound 25, 5-(((S)-1-(3-((6aR,9R)-9-methyl-3-(trifluoromethyl)-6a, 7,9,10-tetrahydropyrazino[1,2-d]pyrido[3,2-b][1,4]oxazin-8(6H)-yl)-3-oxypropoxy)prop-2-yl)amino)-4-(trifluoromethyl)pyridazin-3(2H)-one] | 100 to 500 nM | < 10 nM | – |
| CC1SC[C@H]2CN(C(=O)CCOC[C@H](C)Nc3cn[nH]c(=O)c3C(F)(F)F)CCN2c2ncc(C(F)(F)F)cc21 (stereo partly drawn) [Compound 27] | 500 to 5000 nM | < 10 nM | – |
| C[C@@H](COCCC(=O)N1CCN2c3ncc(C(F)(F)F)cc3OCC[C@H]2C1)Nc1cn[nH]c(=O)c1C(F)(F)F [Compound 29, 5-(((S)-1-(3-oxo-3-((S)-3-(trifluoromethyl)-6,7,7a, 8,10,11-hexahydro-9H-pyrazino[1,2-d]pyrido[3,2-b][1,4]oxazepan-9-yl)propoxy)prop-2-yl)amino)-4-(trifluoromethyl)pyridazin-3(2H)-one] | < 100 nM | < 10 nM | – |
| C[C@@H](COCCC(=O)N1CCN2c3ncc(C(F)(F)F)cc3N(C3CC3)C(=O)[C@@H]2C1)Nc1cn[nH]c(=O)c1C(F)(F)F [Compound 30, (s)-5-cyclopropyl-8-(3-((S)-2-((6-oxo-5-(trifluoromethyl)-1,6-dihydropyridazin-4-yl)amino)propoxy)propionyl)-3-(trifluoromethyl)-7,8,9,10-tetrahydro-5H-pyrazino[1,2-a]pyrido[3,2-e]pyrazin-6(6aH)-one] | 100 to 500 nM | < 10 nM | – |
| Cc1nc2c(cc1C(F)(F)F)COC[C@H]1CN(C(=O)CCOC[C@H](C)Nc3cn[nH]c(=O)c3C(F)(F)F)CCN21 [Compound 31] | 500 to 5000 nM | < 10 nM | – |
| C[C@@H](COCCC(=O)N1CCN2c3ncc(C(F)(F)F)cc3CCC2C1)Nc1cn[nH]c(=O)c1C(F)(F)F (stereo partly drawn) [Compound 32] | < 100 nM | < 10 nM | – |
| C[C@@H](COCCC(=O)N1CCN2c3ncc(C(F)(F)F)nc3OC[C@@H]2C1)Nc1cn[nH]c(=O)c1C(F)(F)F [Compound 34, 5-(((S)-1-(3-oxo-3-((S)-3-(trifluoromethyl)-6a, 7,9,10-tetrahydrobipyrazino[2,3-b: 1′,2′-d][1,4]oxazin-8(6H)-yl)propoxy)prop-2-yl)amino)-4-(trifluoromethyl)pyridazin-3(2H)-one] | 500 to 5000 nM | < 10 nM | – |
| C[C@@H](COCCC(=O)N1CCN2c3ncc(C(F)(F)F)cc3NCC[C@H]2C1)Nc1cn[nH]c(=O)c1C(F)(F)F [Compound 35, 5-(((S)-1-(3-oxo-3-((S)-3-(trifluoromethyl)-6,7,7a, 8,10,11-hexahydropyrazino[1,2-d]pyrido[3,2-b][1,4]diazepine-9(5H)-yl)propoxy)prop-2-yl)amino)-4-(trifluoromethyl)pyridazin-3(2H)-one] | < 100 nM | < 10 nM | – |
| C[C@@H](COCCC(=O)N1CCN2c3ncc(C(F)(F)F)cc3C(=O)CC2C1)Nc1cn[nH]c(=O)c1C(F)(F)F (stereo partly drawn) [Compound 37, 8-(3-((S)-2-((6-oxo-5-(trifluoromethyl)-1,6-dihydropyridazin-4-yl)amino)propoxy)propionyl)-3-(trifluoromethyl)-6,6a, 7,8,9,10-hexahydro-5H-pyrazino[1,2-a][1,8]naphthyridin-5-one] | 100 to 500 nM | < 10 nM | – |
| C[C@@H](COCCC(=O)N1CCN2c3ncc(C(F)(F)F)cc3C(O)CC2C1)Nc1cn[nH]c(=O)c1C(F)(F)F (stereo partly drawn) [Compound 38] | 100 to 500 nM | < 10 nM | – |
| CCN1C(=O)[C@@H]2CN(C(=O)CCOC[C@H](C)Nc3cn[nH]c(=O)c3C(F)(F)F)CCN2c2ncc(C(F)(F)F)cc21 [Compound 40, (S)-5-ethyl-8-(3-((S)-2-((6-oxo-5-(trifluoromethyl)-1,6-dihydropyridazin-4-yl)amino)propoxy)propionyl)-3-(trifluoromethyl)-7,8,9,10-tetrahydro-5H-pyrazino[1,2-a]pyrido[3,2-e]pyrazin-6(6aH)-one] | – | < 10 nM | < 100 nM |
